{"source": "ChEMBL document CHEMBL5696442", "about": "“Discovery of type II inhibitors of TGFβ-activated kinase 1 (TAK1) and mitogen-activated protein kinase kinase kinase kinase 2 (MAP4K2)” (J Med Chem, 2015)", "key": {"[1]": {"target": "Serine/threonine-protein kinase WNK4 (Homo sapiens) (UniProt Q96J92)", "sequence (Q96J92 whole entry)": "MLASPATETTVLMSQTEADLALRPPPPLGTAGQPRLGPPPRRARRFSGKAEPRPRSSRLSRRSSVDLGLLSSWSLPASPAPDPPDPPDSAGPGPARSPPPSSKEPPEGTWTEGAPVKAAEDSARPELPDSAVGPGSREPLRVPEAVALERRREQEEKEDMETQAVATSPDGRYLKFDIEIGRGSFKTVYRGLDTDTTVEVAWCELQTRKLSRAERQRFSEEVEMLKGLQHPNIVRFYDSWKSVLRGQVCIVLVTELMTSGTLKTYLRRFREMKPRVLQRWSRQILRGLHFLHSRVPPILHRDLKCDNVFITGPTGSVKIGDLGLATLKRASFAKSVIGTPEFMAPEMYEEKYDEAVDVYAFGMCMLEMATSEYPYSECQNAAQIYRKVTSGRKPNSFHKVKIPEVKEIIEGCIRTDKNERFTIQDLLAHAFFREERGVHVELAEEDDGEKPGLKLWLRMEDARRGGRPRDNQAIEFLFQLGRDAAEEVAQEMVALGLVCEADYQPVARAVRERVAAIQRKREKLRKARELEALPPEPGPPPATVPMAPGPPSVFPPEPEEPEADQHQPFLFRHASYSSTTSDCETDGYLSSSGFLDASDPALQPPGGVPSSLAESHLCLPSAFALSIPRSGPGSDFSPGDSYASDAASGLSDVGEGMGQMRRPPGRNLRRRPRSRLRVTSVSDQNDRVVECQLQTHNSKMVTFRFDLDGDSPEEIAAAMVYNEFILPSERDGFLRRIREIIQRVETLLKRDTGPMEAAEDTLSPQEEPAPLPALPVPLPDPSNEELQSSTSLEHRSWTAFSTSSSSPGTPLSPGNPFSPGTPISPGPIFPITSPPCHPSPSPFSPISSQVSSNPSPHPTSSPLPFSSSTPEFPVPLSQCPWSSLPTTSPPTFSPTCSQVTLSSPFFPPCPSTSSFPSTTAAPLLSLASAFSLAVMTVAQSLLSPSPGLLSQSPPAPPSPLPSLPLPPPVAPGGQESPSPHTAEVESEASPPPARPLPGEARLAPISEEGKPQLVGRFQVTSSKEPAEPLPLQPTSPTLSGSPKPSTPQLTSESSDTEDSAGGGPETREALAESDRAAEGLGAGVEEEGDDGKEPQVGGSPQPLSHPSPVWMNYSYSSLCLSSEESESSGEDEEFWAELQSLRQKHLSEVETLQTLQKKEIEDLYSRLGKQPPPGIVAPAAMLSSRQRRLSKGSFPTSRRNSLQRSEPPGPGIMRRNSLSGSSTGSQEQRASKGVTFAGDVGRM", "experiment": "Inhibition of Wnk4 Lys2 labeling site in human Huh-7 cells at 1 uM by KiNativ Profiling analysis relative to control", "type": "cell-based"}, "[2]": {"target": "Cyclin-dependent kinase 9 (Homo sapiens) (UniProt P50750)", "sequence (P50750 whole entry)": "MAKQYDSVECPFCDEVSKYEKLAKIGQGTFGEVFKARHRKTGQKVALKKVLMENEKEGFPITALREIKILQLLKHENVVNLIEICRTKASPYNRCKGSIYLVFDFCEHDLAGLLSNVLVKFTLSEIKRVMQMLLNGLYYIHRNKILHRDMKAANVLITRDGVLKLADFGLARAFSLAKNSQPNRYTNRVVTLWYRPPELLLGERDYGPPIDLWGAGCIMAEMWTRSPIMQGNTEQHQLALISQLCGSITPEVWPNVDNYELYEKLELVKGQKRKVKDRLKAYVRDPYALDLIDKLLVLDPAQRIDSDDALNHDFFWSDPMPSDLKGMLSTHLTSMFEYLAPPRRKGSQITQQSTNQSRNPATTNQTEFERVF", "experiment": "Inhibition of CDK9 Lys2 labeling site in human Huh-7 cell lysate at 1 uM by KiNativ Profiling analysis relative to control", "type": "subcellular"}, "[3]": {"target": "T1, Serine/threonine-protein kinase greatwall (Homo sapiens) (UniProt Q96GX5)", "T1 sequence (whole entry)": "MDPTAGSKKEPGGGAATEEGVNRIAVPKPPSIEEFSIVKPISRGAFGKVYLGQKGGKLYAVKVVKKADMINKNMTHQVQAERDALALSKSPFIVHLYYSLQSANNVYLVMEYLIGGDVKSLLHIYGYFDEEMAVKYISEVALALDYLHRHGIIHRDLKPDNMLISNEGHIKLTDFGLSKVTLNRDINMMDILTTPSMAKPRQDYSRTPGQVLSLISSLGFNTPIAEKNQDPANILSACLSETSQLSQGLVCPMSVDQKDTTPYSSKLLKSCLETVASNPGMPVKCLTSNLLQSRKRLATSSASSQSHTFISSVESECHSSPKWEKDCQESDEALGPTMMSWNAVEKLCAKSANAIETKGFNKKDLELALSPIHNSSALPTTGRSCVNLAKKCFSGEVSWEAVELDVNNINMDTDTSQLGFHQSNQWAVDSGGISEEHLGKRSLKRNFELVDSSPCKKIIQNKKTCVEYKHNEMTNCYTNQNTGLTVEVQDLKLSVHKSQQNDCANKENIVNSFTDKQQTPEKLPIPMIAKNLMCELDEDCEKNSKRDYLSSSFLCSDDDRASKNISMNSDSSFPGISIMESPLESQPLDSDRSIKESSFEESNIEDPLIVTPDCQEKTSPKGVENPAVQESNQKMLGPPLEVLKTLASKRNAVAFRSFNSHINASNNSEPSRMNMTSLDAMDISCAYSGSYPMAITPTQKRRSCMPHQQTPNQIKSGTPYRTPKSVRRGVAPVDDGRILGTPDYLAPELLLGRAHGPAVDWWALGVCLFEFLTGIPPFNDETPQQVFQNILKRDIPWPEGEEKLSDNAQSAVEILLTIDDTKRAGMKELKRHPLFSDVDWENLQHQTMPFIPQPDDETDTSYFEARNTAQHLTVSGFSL", "experiment": "Inhibition of MASTL ATP labeling site in human Huh-7 cell lysate at 1 uM by KiNativ Profiling analysis relative to control", "type": "subcellular"}, "[4]": {"experiment": "Inhibition of KHS1 Lys2 labeling site harbouring DIKGANILLTDHGDVKLADFGVAAK in human Huh-7 cell lysate at 1 uM by KiNativ Profiling analysis relative to control", "conditions": "condition cancer"}, "[5]": {"target": "5'-AMP-activated protein kinase catalytic subunit alpha-1 (Homo sapiens) (UniProt Q13131)", "sequence (Q13131 whole entry, looked up)": "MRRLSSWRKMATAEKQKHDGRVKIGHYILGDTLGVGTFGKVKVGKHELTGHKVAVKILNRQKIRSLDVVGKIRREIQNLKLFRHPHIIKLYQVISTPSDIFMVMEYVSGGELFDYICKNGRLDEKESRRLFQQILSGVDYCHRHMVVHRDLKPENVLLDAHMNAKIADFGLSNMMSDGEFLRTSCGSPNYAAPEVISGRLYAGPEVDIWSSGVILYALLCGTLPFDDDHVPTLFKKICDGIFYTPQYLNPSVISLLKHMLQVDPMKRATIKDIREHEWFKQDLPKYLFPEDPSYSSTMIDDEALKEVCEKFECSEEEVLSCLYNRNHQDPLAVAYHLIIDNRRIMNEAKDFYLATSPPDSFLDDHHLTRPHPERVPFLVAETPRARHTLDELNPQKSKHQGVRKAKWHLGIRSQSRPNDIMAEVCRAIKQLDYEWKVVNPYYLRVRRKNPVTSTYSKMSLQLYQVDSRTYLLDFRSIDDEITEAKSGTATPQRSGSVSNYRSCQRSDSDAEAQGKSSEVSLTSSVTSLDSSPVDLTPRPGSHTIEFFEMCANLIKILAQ", "experiment": "Inhibition of AMPKa1 ATP labeling site in human Huh-7 cell lysate at 1 uM by KiNativ Profiling analysis relative to control", "type": "subcellular"}, "[6]": {"experiment": "Inhibition of KHS1 Lys1 labeling site in human Huh-7 cells at 1 uM by KiNativ Profiling analysis relative to control", "conditions": "condition cancer"}, "[7]": {"target": "T2, Serine/threonine-protein kinase NLK (Homo sapiens) (UniProt Q9UBE8)", "T2 sequence (whole entry)": "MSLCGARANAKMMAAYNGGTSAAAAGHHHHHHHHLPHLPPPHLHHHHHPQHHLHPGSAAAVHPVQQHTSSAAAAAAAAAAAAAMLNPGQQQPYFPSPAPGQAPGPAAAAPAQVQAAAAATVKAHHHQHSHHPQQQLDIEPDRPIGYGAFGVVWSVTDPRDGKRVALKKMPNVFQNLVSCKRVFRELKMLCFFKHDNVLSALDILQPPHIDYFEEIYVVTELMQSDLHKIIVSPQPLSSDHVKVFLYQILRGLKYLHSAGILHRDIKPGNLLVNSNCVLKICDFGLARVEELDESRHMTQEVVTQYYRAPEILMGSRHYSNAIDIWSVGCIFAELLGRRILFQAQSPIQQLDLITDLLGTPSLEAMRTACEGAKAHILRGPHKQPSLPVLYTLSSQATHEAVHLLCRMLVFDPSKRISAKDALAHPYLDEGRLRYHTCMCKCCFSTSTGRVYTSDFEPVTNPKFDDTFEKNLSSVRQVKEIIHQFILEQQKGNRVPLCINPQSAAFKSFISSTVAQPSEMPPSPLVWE", "experiment": "Inhibition of NLK (unknown origin) at 10 uM by Ambit Kinomescan binding assay relative to control; values are per cent of control"}, "[8]": {"target": "Tyrosine-protein kinase Yes (Homo sapiens) (UniProt P07947)", "sequence (P07947 2-543 limits assumed)": "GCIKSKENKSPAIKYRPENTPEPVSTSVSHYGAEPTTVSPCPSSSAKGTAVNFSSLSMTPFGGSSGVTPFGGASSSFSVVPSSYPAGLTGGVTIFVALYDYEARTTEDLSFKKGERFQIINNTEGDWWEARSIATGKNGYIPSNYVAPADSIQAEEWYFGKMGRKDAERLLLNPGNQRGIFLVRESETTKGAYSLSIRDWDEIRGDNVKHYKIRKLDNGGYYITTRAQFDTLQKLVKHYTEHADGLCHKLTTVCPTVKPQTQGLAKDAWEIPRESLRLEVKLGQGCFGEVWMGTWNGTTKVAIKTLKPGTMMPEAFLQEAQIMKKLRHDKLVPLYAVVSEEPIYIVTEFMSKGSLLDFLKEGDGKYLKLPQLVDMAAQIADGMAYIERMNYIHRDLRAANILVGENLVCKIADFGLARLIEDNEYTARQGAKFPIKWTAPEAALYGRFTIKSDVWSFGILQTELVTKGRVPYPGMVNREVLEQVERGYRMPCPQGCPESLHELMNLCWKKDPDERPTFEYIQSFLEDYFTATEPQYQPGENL", "experiment": "Inhibition of YES ACT labeling site in human Huh-7 cells at 10 uM by KiNativ Profiling analysis relative to control", "type": "cell-based"}, "[9]": {"target": "Tyrosine-protein kinase Tec (Homo sapiens) (UniProt P42680)", "sequence (P42680 whole entry, looked up)": "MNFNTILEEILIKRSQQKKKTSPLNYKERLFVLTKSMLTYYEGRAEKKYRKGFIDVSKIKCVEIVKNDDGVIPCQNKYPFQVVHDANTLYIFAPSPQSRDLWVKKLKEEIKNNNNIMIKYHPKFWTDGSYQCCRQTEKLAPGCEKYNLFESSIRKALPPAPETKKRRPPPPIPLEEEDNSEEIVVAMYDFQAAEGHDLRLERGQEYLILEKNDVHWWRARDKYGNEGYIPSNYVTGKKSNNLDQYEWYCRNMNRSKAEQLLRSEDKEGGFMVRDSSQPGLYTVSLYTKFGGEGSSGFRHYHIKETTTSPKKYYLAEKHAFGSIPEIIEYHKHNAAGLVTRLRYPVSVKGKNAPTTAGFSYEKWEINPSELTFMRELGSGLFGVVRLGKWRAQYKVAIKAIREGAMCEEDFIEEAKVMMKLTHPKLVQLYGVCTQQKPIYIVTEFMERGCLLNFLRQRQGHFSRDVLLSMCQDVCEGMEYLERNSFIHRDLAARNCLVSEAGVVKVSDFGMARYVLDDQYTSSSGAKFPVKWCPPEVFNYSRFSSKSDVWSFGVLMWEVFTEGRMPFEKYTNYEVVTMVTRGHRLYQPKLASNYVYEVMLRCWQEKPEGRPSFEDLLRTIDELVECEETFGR", "experiment": "Inhibition of TEC (unknown origin) at 1 uM by Ambit Kinomescan binding assay relative to control"}, "[10]": {"target": "Tyrosine-protein kinase receptor TYRO3 (Homo sapiens) (UniProt Q06418)", "sequence (Q06418 whole entry)": "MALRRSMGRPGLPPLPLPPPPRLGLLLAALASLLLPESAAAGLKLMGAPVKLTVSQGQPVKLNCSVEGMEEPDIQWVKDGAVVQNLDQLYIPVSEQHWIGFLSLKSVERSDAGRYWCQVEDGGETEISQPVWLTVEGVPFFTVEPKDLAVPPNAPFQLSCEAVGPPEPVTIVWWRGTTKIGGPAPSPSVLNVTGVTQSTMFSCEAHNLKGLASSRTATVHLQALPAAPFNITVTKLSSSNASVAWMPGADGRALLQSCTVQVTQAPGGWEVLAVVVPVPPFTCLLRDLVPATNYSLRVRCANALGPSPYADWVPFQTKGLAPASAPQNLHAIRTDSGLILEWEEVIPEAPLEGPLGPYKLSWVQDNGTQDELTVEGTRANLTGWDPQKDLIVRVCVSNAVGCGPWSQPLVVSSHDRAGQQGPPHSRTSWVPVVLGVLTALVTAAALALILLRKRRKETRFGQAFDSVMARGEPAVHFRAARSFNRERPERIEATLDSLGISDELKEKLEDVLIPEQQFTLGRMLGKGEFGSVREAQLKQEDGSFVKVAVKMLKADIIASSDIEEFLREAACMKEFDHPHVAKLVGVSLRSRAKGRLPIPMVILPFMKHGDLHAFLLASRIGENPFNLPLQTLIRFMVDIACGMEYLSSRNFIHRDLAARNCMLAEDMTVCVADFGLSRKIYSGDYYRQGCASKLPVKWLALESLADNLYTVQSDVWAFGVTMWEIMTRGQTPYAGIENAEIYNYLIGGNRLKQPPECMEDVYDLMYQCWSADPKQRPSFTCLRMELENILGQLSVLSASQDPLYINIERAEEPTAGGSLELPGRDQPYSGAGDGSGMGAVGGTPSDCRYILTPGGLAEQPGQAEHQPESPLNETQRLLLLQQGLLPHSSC", "experiment": "Inhibition of TYRO3 (unknown origin) at 1 uM by Ambit Kinomescan binding assay relative to control"}, "[11]": {"target": "T3, Serine/threonine-protein kinase 3 (Homo sapiens) (UniProt Q13188)", "T3 sequence (whole entry)": "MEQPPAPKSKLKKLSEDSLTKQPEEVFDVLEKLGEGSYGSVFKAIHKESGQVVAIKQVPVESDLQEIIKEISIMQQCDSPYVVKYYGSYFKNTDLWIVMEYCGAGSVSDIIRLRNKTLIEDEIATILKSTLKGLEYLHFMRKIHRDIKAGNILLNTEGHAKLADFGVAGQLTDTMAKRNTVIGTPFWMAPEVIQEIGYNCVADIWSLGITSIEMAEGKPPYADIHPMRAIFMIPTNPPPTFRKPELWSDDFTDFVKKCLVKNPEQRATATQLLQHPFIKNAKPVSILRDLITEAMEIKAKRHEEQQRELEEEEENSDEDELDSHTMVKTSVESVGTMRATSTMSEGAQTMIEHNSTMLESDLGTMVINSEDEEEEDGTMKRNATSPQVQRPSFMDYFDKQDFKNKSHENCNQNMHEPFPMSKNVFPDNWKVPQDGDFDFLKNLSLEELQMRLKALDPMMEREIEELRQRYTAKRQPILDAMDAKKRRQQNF", "experiment": "Inhibition of MST2 Lys1 labeling site in human A-375 cells at 0.5 uM by KiNativ Profiling analysis relative to control", "type": "cell-based"}}}
{"smiles": "CNc1cc(Oc2cc(C(=O)Nc3cc(N4CCN(C)CC4)cc(C(F)(F)F)c3)ccc2C)ncn1", "values": [{"measurement": "inhibition", "setting": "[1]", "value": 44.2, "unit": "%"}, {"measurement": "inhibition", "setting": "[2]", "value": 11.9, "unit": "%"}, {"measurement": "inhibition", "setting": "[3]", "value": 8.6, "unit": "%"}, {"measurement": "inhibition at 1 µM", "setting": "[4]", "value": 10.4, "unit": "%"}, {"measurement": "inhibition", "setting": "[5]", "value": 11.2, "unit": "%"}, {"measurement": "inhibition at 1 µM", "setting": "[6]", "value": -10.3, "unit": "%"}]}
{"smiles": "CCN1CCN(Cc2ccc(NC(=O)c3ccc(C)c(Oc4ccnc5[nH]ccc45)c3)cc2C(F)(F)F)CC1", "values": [{"measurement": "percent of control", "setting": "[7]", "value": 14, "unit": "%"}, {"measurement": "inhibition", "setting": "[8]", "value": 25.2, "unit": "%"}]}
{"smiles": "CCN1CCN(Cc2ccc(NC(=O)c3ccc(C)c(/C=C/c4cnc5[nH]ccc5c4OC)c3)cc2C(F)(F)F)CC1", "values": [{"measurement": "inhibition", "setting": "[9]", "value": 16, "unit": "%"}, {"measurement": "inhibition", "setting": "[10]", "value": 76, "unit": "%"}, {"measurement": "inhibition", "setting": "[11]", "value": 8.2, "unit": "%"}]}
